From patent publication US20230322771A1, “HETEROCYCLIC GLP-1 AGONISTS” (Gasherbrum Bio, Inc., priority 2020, published 2023) come the findings set out here.

Molecules are shown by their SMILES.

The target in one assay is GLP-1 Receptor (Homo sapiens, UniProt P43220). Description: GLP-1R agonist cAMP stimulation assay (HEK293/GLP1R/CRE-LUC cells, HTRF cAMP dynamic 2 kit). The format is cell-based. The conditions noted are these: HEK293/CRE-Luc cell line (HDB) stably expressing GLP-1 Receptor; 30 min incubation at 37° C.; read-out: GLP1R cAMP Stimulation DR: EC50 (nM) [Species: Human, Assay Cell Line: HDB]. How it is done: Activation of GLP-1 receptor is known to stimulate cyclic AMP (cAMP) production in cells which indicates primary coupling to the Gαs subunit of the G protein heterotrimeric complex.
Sequence of GLP-1 Receptor (P43220 24-463): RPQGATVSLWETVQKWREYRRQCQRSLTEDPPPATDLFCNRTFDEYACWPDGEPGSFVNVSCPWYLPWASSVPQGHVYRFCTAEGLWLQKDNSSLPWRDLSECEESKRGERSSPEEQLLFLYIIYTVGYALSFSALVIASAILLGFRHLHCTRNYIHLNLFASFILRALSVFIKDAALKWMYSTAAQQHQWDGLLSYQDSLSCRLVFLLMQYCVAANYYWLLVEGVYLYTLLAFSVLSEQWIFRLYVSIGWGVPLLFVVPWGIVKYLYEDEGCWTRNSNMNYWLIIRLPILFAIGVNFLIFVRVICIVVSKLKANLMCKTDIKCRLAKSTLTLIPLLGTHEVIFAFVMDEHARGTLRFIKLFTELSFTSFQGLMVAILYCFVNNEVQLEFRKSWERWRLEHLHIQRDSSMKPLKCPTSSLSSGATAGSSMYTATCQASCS
To optimize functional activity directed toward Gαs coupling, a HEK293/CRE-Luc cell line developed by HDB stably expressing the GLP-1 Receptor was used. 200× concentration of compound working solutions were prepared (Agilent Technologies Bravo) with ½ log serial dilution in 384-well Echo LDV plate (Labcyte, Cat #LP-0200). 50 nL/well 200× concentration of compound working solutions were moved to 384-well white low volume plate (Greiner, Cat #784075) using Labcyte ECHO550. 1×10^5 cells/mL HEK293/GLP1R/CRE-LUC(HD Biosciences) cell suspensions prepared with assay buffer[DPBS containing 0.5 mM IBMX(Sigma, Cat #15879) and 0.1% BSA(GENVIEW, Cat #FA016-100 g)], 10 uL cell suspensions were added to each well of previous generated assay plate which already contains 50 nl compound at 200× concentration using ThermoFisher Multidrop Combi(1000 cells/well). Seal the plate and incubate at 37° C. with 5% CO2 for 30 min.
After incubation the cAMP assay signal was generated using cAMP dynamic 2 Kit (Cisbio). 5 μL cAMP-d2 working solution was added to each well, followed with 5 μL Anti-cAMP antibody-cryptate working solution added to each well using ThermoFisher Multidrop Combi. Incubate at room temperature for 1 hour protected from light. Read the fluorescence at 665 and 615 nm with Reader PerkinElmer EnVision.
% Activity=100%×(mean RLU of test sample−mean RLU of vehicle control)/(mean RLU of MAX control−mean RLU of vehicle control))
(Time-resolved FRET reads energy transfer from a long-lived donor to a nearby acceptor.)
For `CCS(=O)(=O)C(C)c1ccc(-n2ccn(-c3c4c(nn3-c3cc(C)c(F)c(C)c3)CCN(C(=O)c3cc5cc(C6CCOCC6)ccc5n3C3(c5noc(=O)[nH]5)CC3)[C@H]4C)c2=O)c(F)c1` (stereo partly drawn) [Compound 113a, 3-(1-(2-((4S)-3-(3-(4-(1-(ethylsulfonyl)ethyl)-2-fluorophenyl)-2-oxo-2,3-dihydro-1H-imidazol-1-yl)-2-(4-fluoro-3,5-dimethylphenyl)-4-methyl-4,5,6,7-tetrahydro-2H-pyrazolo[4,3-c]pyridine-5-carbonyl)-5-(tetrahydro-2H-pyran-4-yl)-1H-indol-1-yl)cyclopropyl)-1,2,4-oxadiazol-5(4H)-one], the EC50 came to 0.55 nM. Still for that read-out and setting: for `Cc1cc(-n2nc3c(c2-n2ccn(-c4cccc(CS(C)(=O)=O)c4)c2=O)[C@H](C)N(C(=O)c2cc4cc(C5CCOCC5)ccc4n2[C@@]2(c4noc(=O)[nH]4)C[C@@H]2C)CC3)cc(C)c1F` [Compound 102a, 3-((1S,2S)-1-(2-((S)-2-(4-fluoro-3,5-dimethylphenyl)-4-methyl-3-(3-(3-((methylsulfonyl)methyl)phenyl)-2-oxo-2,3-dihydro-1H-imidazol-1-yl)-4,5,6,7-tetrahydro-2H-pyrazolo[4,3-c]pyridine-5-carbonyl)-5-(tetrahydro-2H-pyran-4-yl)-1H-indol-1-yl)-2-methylcyclopropyl)-1,2,4-oxadiazol-5(4H)-one] the value was 0.27 nM; for `Cc1cc(-n2nc3c(c2-n2ccn(-c4ccc(S(=O)(=O)C5CC5)cc4)c2=O)[C@H](C)N(C(=O)c2cc4cc(C5CCOCC5)ccc4n2[C@@]2(c4noc(=O)[nH]4)C[C@@H]2C)CC3)cc(C)c1F` [Compound 108a, 3-((1S,2S)-1-(2-((S)-3-(3-(4-(cyclopropylsulfonyl)phenyl)-2-oxo-2,3-dihydro-1H-imidazol-1-yl)-2-(4-fluoro-3,5-dimethylphenyl)-4-methyl-4,5,6,7-tetrahydro-2H-pyrazolo[4,3-c]pyridine-5-carbonyl)-5-(tetrahydro-2H-pyran-4-yl)-1H-indol-1-yl)-2-methylcyclopropyl)-1,2,4-oxadiazol-5(4H)-one], 0.043 nM; for `CCS(=O)(=O)C(C)c1ccc(-n2ccn(-c3c4c(nn3-c3cc(C)c(F)c(C)c3)CCN(C(=O)c3cc5cc(C6CCOCC6)ccc5n3[C@@]3(c5noc(=O)[nH]5)C[C@@H]3C)[C@H]4C)c2=O)c(F)c1` (stereo partly drawn) [Compound 111a, 3-((1S,2S)-1-(2-((4S)-3-(3-(4-(1-(ethylsulfonyl)ethyl)-2-fluorophenyl)-2-oxo-2,3-dihydro-1H-imidazol-1-yl)-2-(4-fluoro-3,5-dimethylphenyl)-4-methyl-4,5,6,7-tetrahydro-2H-pyrazolo[4,3-c]pyridine-5-carbonyl)-5-(tetrahydro-2H-pyran-4-yl)-1H-indol-1-yl)-2-methylcyclopropyl)-1,2,4-oxadiazol-5(4H)-one], 0.32 nM. As to `Cc1cc(-n2nc3c(c2-n2ccn(-c4ccc(NS(C)(=O)=O)cc4)c2=O)[C@H](C)N(C(=O)c2cc4cc(C5CCOCC5)ccc4n2[C@@]2(c4noc(=O)[nH]4)C[C@@H]2C)CC3)cc(C)c1F` [Compound 105a, N-(4-(3-((S)-2-(4-fluoro-3,5-dimethylphenyl)-4-methyl-5-(1-((1S,2S)-2-methyl-1-(5-oxo-4,5-dihydro-1,2,4-oxadiazol-3-yl)cyclopropyl)-5-(tetrahydro-2H-pyran-4-yl)-1H-indole-2-carbonyl)-4,5,6,7-tetrahydro-2H-pyrazolo[4,3-c]pyridin-3-yl)-2-oxo-2,3-dihydro-1H-imidazol-1-yl)phenyl)methanesulfonamide], the EC50 amounted to 0.036 nM. The same measure, in the same setting: with `CNS(=O)(=O)c1ccc(-n2ccn(-c3c4c(nn3-c3cc(C)c(F)c(C)c3)CCN(C(=O)c3cc5cc(C6CCOCC6)ccc5n3[C@@]3(c5noc(=O)[nH]5)C[C@@H]3C)[C@H]4C)c2=O)cc1` [Compound 104a, 4-(3-((S)-2-(4-fluoro-3,5-dimethylphenyl)-4-methyl-5-(1-((1S,2S)-2-methyl-1-(5-oxo-4,5-dihydro-1,2,4-oxadiazol-3-yl)cyclopropyl)-5-(tetrahydro-2H-pyran-4-yl)-1H-indole-2-carbonyl)-4,5,6,7-tetrahydro-2H-pyrazolo[4,3-c]pyridin-3-yl)-2-oxo-2,3-dihydro-1H-imidazol-1-yl)-N-methylbenzenesulfonamide] the figure was 0.081 nM; with `Cc1cc(-n2nc3c(c2-n2ccn(-c4ccc(N5CCCS5(=O)=O)cc4)c2=O)[C@H](C)N(C(=O)c2cc4cc(C5CCOCC5)ccc4n2[C@@]2(c4noc(=O)[nH]4)C[C@@H]2C)CC3)cc(C)c1F` [Compound 107a, 3-((1S,2S)-1-(2-((S)-3-(3-(4-(1,1-dioxidoisothiazolidin-2-yl)phenyl)-2-oxo-2,3-dihydro-1H-imidazol-1-yl)-2-(4-fluoro-3,5-dimethylphenyl)-4-methyl-4,5,6,7-tetrahydro-2H-pyrazolo[4,3-c]pyridine-5-carbonyl)-5-(tetrahydro-2H-pyran-4-yl)-1H-indol-1-yl)-2-methylcyclopropyl)-1,2,4-oxadiazol-5(4H)-one], 0.18 nM; with `CCS(=O)(=O)Cc1ccc(-n2ccn(-c3c4c(nn3-c3cc(C)c(F)c(C)c3)CCN(C(=O)c3cc5cc(C6CCOCC6)ccc5n3C3(c5noc(=O)[nH]5)CC3)[C@H]4C)c2=O)cc1` [Compound 112a, (S)-3-(1-(2-(3-(3-(4-((ethylsulfonyl)methyl)phenyl)-2-oxo-2,3-dihydro-1H-imidazol-1-yl)-2-(4-fluoro-3,5-dimethylphenyl)-4-methyl-4,5,6,7-tetrahydro-2H-pyrazolo[4,3-c]pyridine-5-carbonyl)-5-(tetrahydro-2H-pyran-4-yl)-1H-indol-1-yl)cyclopropyl)-1,2,4-oxadiazol-5(4H)-one], 0.17 nM. For `Cc1cc(-n2nc3c(c2-n2ccn(-c4ccc(CCS(C)(=O)=O)cc4F)c2=O)[C@H](C)N(C(=O)c2cc4cc(C5CCOCC5)ccc4n2[C@@]2(c4noc(=O)[nH]4)C[C@@H]2C)CC3)cc(C)c1F` [Compound 110a, 3-((1S,2S)-1-(2-((S)-2-(4-fluoro-3,5-dimethylphenyl)-3-(3-(2-fluoro-4-(2-(methylsulfonyl)ethyl)phenyl)-2-oxo-2,3-dihydro-1H-imidazol-1-yl)-4-methyl-4,5,6,7-tetrahydro-2H-pyrazolo[4,3-c]pyridine-5-carbonyl)-5-(tetrahydro-2H-pyran-4-yl)-1H-indol-1-yl)-2-methylcyclopropyl)-1,2,4-oxadiazol-5(4H)-one], the EC50 stood at 0.05 nM. Same read-out and setting: with `Cc1cc(-n2nc3c(c2-n2ccn(-c4cccc(CCS(C)(=O)=O)c4)c2=O)[C@H](C)N(C(=O)c2cc4cc(C5CCOCC5)ccc4n2[C@@]2(c4noc(=O)[nH]4)C[C@@H]2C)CC3)cc(C)c1F` [Compound 109a, 3-((1S,2S)-1-(2-((S)-2-(4-fluoro-3,5-dimethylphenyl)-4-methyl-3-(3-(3-(2-(methylsulfonyl)ethyl)phenyl)-2-oxo-2,3-dihydro-1H-imidazol-1-yl)-4,5,6,7-tetrahydro-2H-pyrazolo[4,3-c]pyridine-5-carbonyl)-5-(tetrahydro-2H-pyran-4-yl)-1H-indol-1-yl)-2-methylcyclopropyl)-1,2,4-oxadiazol-5(4H)-one] the figure was 0.24 nM; with `CCS(=O)(=O)Cc1ccc(-n2ccn(-c3c4c(nn3-c3cc(C)c(F)c(C)c3)CCN(C(=O)c3cc5cc(C6CCOCC6)ccc5n3[C@@]3(c5noc(=O)[nH]5)C[C@@H]3C)[C@H]4C)c2=O)cc1` [Compound 103a, 3-((1S,2S)-1-(2-((S)-3-(3-(4-((ethylsulfonyl)methyl)phenyl)-2-oxo-2,3-dihydro-1H-imidazol-1-yl)-2-(4-fluoro-3,5-dimethylphenyl)-4-methyl-4,5,6,7-tetrahydro-2H-pyrazolo[4,3-c]pyridine-5-carbonyl)-5-(tetrahydro-2H-pyran-4-yl)-1H-indol-1-yl)-2-methylcyclopropyl)-1,2,4-oxadiazol-5(4H)-one], 0.065 nM.

The assay is the same for the next values; noted with them: HEK293/CRE-Luc cell line (HDB) stably expressing GLP-1 Receptor; 30 min incubation at 37° C.; read-out: GLP1R cAMP Stimulation DR: pEC50 (M) [Species: Human, Assay Cell Line: HDB] (converted).
`Cc1cc(-n2nc3c(c2-n2ccn(-c4ccc(CS(C)(=O)=O)cc4)c2=O)[C@H](C)N(C(=O)c2cc4cc(C5CCOCC5)ccc4n2[C@@]2(c4noc(=O)[nH]4)C[C@@H]2C)CC3)cc(C)c1F` [Compound 101a, 3-((1S,2S)-1-(2-((S)-2-(4-fluoro-3,5-dimethylphenyl)-4-methyl-3-(3-(4-((methylsulfonyl)methyl)phenyl)-2-oxo-2,3-dihydro-1H-imidazol-1-yl)-4,5,6,7-tetrahydro-2H-pyrazolo[4,3-c]pyridine-5-carbonyl)-5-(tetrahydro-2H-pyran-4-yl)-1H-indol-1-yl)-2-methylcyclopropyl)-1,2,4-oxadiazol-5(4H)-one]: the EC50 was 0.0316 nM. For the compound `Cc1cc(-n2nc3c(c2-n2ccn(-c4ccc(N5CCCS5(=O)=O)cc4)c2=O)[C@H](C)N(C(=O)c2cc4cc(C5CCOCC5)ccc4n2[C@@]2(c4noc(=O)[nH]4)C[C@@H]2C)CC3)cc(C)c1F` [Compound 107a, 3-((1S,2S)-1-(2-((S)-3-(3-(4-(1,1-dioxidoisothiazolidin-2-yl)phenyl)-2-oxo-2,3-dihydro-1H-imidazol-1-yl)-2-(4-fluoro-3,5-dimethylphenyl)-4-methyl-4,5,6,7-tetrahydro-2H-pyrazolo[4,3-c]pyridine-5-carbonyl)-5-(tetrahydro-2H-pyran-4-yl)-1H-indol-1-yl)-2-methylcyclopropyl)-1,2,4-oxadiazol-5(4H)-one], the EC50 was 0.17 nM.
